The results in this text go back to PubChem BioAssay (NCI).

Each structure is given as a SMILES string. “And” between values parts separate entries of the source, which are not always exact repeats. Equal entries are not always repeated.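 Five compound concentrations were applied to cells in 96-well plates for 48 hours; endpoints were derived by simple linear interpolation of the resulting dose-response curve. GI50 marks 50% less growth. TGI marks complete inhibition of growth.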 *1 amine or outer side, *2 acyl side, *3 side chain or, on linkers, in order; H or OH if unused. Where a SMILES comes first, the peptide text is derived from it. Bridges are numbered along the chain shown (N, C = ends). Roman numbers before positions name the chains, in order. [ ]: non-standard residue; d: D form. Actinocin(9to1) = Cc1c2oc3c(C)ccc(C(=O)[*:1])c3nc-2c(C(=O)[*:2])c(N)c1=O; NMeV = CN[CH](C(=O)O)C(C)C; Sar = CNCC(=O)O

Common to all, as to experiment: NCI anticancer screen, dose series, 48 h
Assay [1] relates to ACHN renal.
Assay [2] deals with HCT-116 colon.
The test system of assay [3] is HOP-62 NSCLC.
Assay [4] has as its system HOP-92 NSCLC.
Assay [5] relates to KM12 colon.
Assay [6] concerns NCI-H460 lung.
Assay [7] has as its system OVCAR-3 ovarian.
The subject of assay [8] is RXF 393 renal.
Assay [9] concerns SK-MEL-5 melanoma.
The test system of assay [10] is U251 CNS.
Assay [11] deals with UACC-257 melanoma.
In assay [12] the test system is UACC-62 melanoma.
Assay [13] concerns UO-31 renal.

As for `NC(Cc1ccc(OCc2ccccc2)cc1)C(=O)NC(Cc1ccccc1)C(=O)Oc1c(Cl)c(Cl)c(Cl)c(Cl)c1Cl` (stereo unspecified), the TGI in [1] was found to be 30.5 µM; in [2] it was 31.3 µM; in assay [3], 30.5 µM; in assay [4] it was 25.8 µM; in assay [5] it was 28.8 µM; in assay [6], 30.5 µM. The TGI in [7] stood at 28.9 µM; in assay [8], 28.3 µM; in assay [9], 32.4 µM; in assay [10] it was 31.2 µM; in assay [11], 32.8 µM; in [12], 32.7 µM. For the same compound, in [13], the TGI was found to be 30.4 µM.
Consider `CC(C)(C)c1ccc(C(O)CCCN2CCC(C(O)(c3ccccc3)c3ccccc3)CC2)cc1` (stereo unspecified), for which the GI50 in assay [1] is 1.67 µM; in assay [4], 1.2 µM; in assay [6], 1.6 µM and 14.6 µM; in assay [8], 1.08 µM; in [9], 1.59 µM and 13.8 µM; in assay [11], 1.4 µM and 13.2 µM. In addition, the TGI in assay [1] is 3.03 µM; in assay [4], 2.6 µM; in [6], 2.95 µM and 21.5 µM; in assay [8], 2.27 µM; in assay [9], 2.93 µM and 23.5 µM; in [11] it was 2.85 µM and 18.2 µM.
Regarding `O=C(NNC(=S)Nc1ccccc1)c1nsc2ccccc12`, the TGI in assay [1] was > 100 µM; in [2] it was > 100 µM; in [3], > 100 µM; in [4] it was 90.5 µM; in [5], > 100 µM; in assay [6], > 100 µM. The TGI in assay [7] was 35.1 µM; in assay [8], > 100 µM; in assay [9], > 100 µM; in assay [10] it was > 100 µM; in [11], > 100 µM; in assay [12], 85.7 µM. In assay [13], this compound came in with a TGI of 75.4 µM.
In the case of `Cc1c2oc3c(C)ccc(C(=O)NC4C(=O)NC(Cc5ccccc5)C(=O)N5CCCC5C(=O)N(C)CC(=O)N(C)C(C(C)C)C(=O)OC4C)c3nc-2c(C(=O)NC2C(=O)NC(Cc3ccccc3)C(=O)N3CCCC3C(=O)N(C)CC(=O)N(C)C(C(C)C)C(=O)OC2C)c(N)c1=O` (stereo unspecified) (I: TFP[Sar][NMeV] / II: TFP[Sar][NMeV]; ester I:1-I:C, II:1-II:C; linker I:N-II:N via Actinocin(9to1); configuration not given here), the TGI in assay [1] was 1.21 µM and 1.98 µM; in assay [2], 0.00736 µM; in assay [3] it was 0.102 µM; in assay [5] it was 1.05 µM; in [7] it was 0.0252 µM and 0.04 µM; in assay [8], 0.00952 µM and 0.0394 µM. Moreover, the TGI in [9] is 0.0192 µM and 0.0125 µM; in assay [10], 1.06 µM and 1.26 µM; in [11], 0.0577 µM; in assay [12], 0.00232 µM; in assay [13], 0.468 µM and 0.31 µM. In addition, the GI50 in assay [8] was < 0.001 µM; in assay [13] it was 0.0502 µM.
